From patent US20120052130A1, “GPR 119 MODULATORS” (Pfizer Inc., priority 2009, published 2012) come the findings set out here.

The target of assay [1] is T1, human GPR119 (Homo sapiens, UniProt Q8TDV5).
T1 sequence (Q8TDV5 1-335): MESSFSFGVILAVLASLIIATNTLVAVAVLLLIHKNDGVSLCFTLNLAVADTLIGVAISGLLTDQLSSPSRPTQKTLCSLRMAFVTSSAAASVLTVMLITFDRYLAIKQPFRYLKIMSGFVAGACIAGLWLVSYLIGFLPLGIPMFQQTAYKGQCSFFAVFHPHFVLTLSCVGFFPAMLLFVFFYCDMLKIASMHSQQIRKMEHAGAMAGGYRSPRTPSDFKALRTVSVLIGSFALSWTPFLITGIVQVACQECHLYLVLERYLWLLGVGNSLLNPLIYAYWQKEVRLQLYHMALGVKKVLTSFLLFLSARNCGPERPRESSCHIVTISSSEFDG
In words: HTRF cAMP cell-based GPR119 agonist assay (hGPR119 HEK-CRE beta-lactamase cells). More on the design: host or cells: hGPR119-HEK293-CRE-beta-lactamase cells. The note with it: HTRF cAMP, hGPR119 HEK-CRE beta-lactamase cells; each line is a separate determination; read-out: Human cAMP Functional EC50. The method, then:
GPR119 agonist activity was also determined with a cell-based assay utilizing an HTRF (Homogeneous Time-Resolved Fluorescence) cAMP detection kit (cAMP dynamic 2 Assay Kit; Cis Bio cat #62AM4PEC) that measures cAMP levels in the cell. The method is a competitive immunoassay between native cAMP produced by the cells and the cAMP labeled with the dye d2. The tracer binding is visualized by a Mab anti-cAMP labeled with Cryptate. The specific signal (i.e. energy transfer) is inversely proportional to the concentration of cAMP in either standard or sample.
Specifically, hGPR119HEK-CRE beta-lactamase cells (Invitrogen 2.5×10^7/mL; the same cell line used in the beta-lactamase assay described above) are removed from cryopreservation and diluted in growth medium (Dulbecco's modified Eagle medium high glucose (DMEM; Gibco Cat #11995-065), 1% charcoal dextran treated fetal bovine serum (CD serum; HyClone Cat # SH30068.03), 1×MEM Nonessential amino acids (Gibco Cat #15630-080) and 25 mM HEPES pH 7.0 (Gibco Cat #15630-080)). The cell concentration was adjusted to 1.5×10^5 cells/mL and 30 mLs of this suspension was added to a T-175 flask and incubated at 37 degrees Celsius in a humidified environment in 5% carbon dioxide. […]
Varying concentrations of each compound to be tested were diluted in assay buffer containing 3-isobutyl-1-methylxanthin (IBMX; Sigma cat #15879) and added to the assay plate wells in a volume of 2 microL (final IBMX concentration was 400 microM and final DMSO concentration was 0.58%). […] The plates were then incubated at room temperature and after 60 minutes, changes in the HTRF signal were read with an Envision 2104 multilabel plate reader using excitation of 330 nm and emissions of 615 and 665 nm. Raw data were converted to nM cAMP by interpolation from a cAMP standard curve (as described in the manufacturer's assay protocol) and EC50 determinations were made from an agonist-response curves analyzed with a curve fitting program using a 4-paramter logistic dose response equation.
(In TR-FRET formats the signal depends on donor and acceptor labels being close together.)

In assay [2] the target is T2, human GPR119 (Homo sapiens, UniProt Q8TDV5).
T2 construct: host or cells: U2OS hGPR119 β-arrestin cell line
In words: DiscoverX PathHunter β-arrestin cell assay (U2OS hGPR119 β-arrestin cell line). To be noted: U2OS hGPR119 β-arrestin cells; each line is a separate determination; read-out: Human B-arrestin Functional EC50. The assay is classed as cell-based. The method, then:
GPR119 agonist activity was also determined with a cell-based assay utilizing DiscoverX PathHunter β-arrestin cell assay technology and their U2OS hGPR119 β-arrestin cell line (DiscoverX Cat #93-0356 C3). In this assay, agonist activation is determined by measuring agonist-induced interaction of β-arrestin with activated GPR119. A small, 42 amino acid enzyme fragment, called ProLink was appended to the C-terminus of GPR119. Arrestin was fused to the larger enzyme fragment, termed EA (Enzyme Acceptor). […]
After 16 hours (overnight) the assay plates were removed from the incubator and varying concentrations of each compound to be tested (diluted in assay buffer (1×HBSS+CaCl2+MgCl2 (Gibco Cat #14025-092), 20 mM HEPES pH 7.0 (Gibco Cat #15630-080) and 0.1% BSA (Sigma Cat # A9576)) were added to the assay plate wells in a volume of 5 microliters (final DMSO concentration was 0.5%). After a 90 minute incubation at 37 degrees Celsius in a humidified environment in 5% carbon dioxide, 12 microliters of Galacton Star β-galactosidase substrate (PathHunter Detection Kit (DiscoveRx Cat #93-0001); prepared as described in the manufacturers assay protocol) was added to each well of the assay plate. The plates were incubated at room temperature and after 60 minutes, changes in the luminescence were read with an Envision 2104 multilabel plate reader at 0.1 seconds per well. […]
T2 sequence (P32121 whole entry partner, one chain of several): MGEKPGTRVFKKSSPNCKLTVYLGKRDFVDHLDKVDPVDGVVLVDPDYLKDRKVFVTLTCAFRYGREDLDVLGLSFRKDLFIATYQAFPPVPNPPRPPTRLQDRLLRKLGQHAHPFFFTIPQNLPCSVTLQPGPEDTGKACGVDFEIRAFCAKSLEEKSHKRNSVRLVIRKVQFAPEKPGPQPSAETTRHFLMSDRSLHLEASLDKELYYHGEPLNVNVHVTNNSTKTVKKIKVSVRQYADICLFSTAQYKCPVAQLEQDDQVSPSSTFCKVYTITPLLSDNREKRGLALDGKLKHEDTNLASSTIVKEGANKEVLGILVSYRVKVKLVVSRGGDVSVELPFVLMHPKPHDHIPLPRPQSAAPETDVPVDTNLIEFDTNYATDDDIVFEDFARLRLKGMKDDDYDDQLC

Several values for one entry are separate records, joined by “and”; a condition that tells them apart may be missing. Identical values can stand only once.

In general, EC50 refers to the concentration that produces a half-maximal response. On to `Cc1c(O[C@@H]2[C@@H]3COC[C@H]2CN(C(=O)OC(C)C)C3)ncnc1N1CCc2cc(S(C)(=O)=O)ccc21` [Example 23, Isopropyl (9-syn)-9-({5-methyl-6-[5-(methylsulfonyl)-2,3-dihydro-1H-indol-1-yl]pyrimidin-4-yl}oxy)-3-oxa-7-azabicyclo[3.3.1]nonane-7-carboxylate], for which the EC50 at human GPR119 [1] is 311 nM and 982 nM and 1040 nM and 1330 nM; on human GPR119 [2], 37 nM.

For the compound `Cc1c(O[C@@H]2[C@@H]3COC[C@H]2CN(C(=O)OC2(C)CC2)C3)ncnc1N1CCc2ncccc21` [Example 28, 1-Methylcyclopropyl (9-syn)-9-{[6-(2,3-dihydro-1H-pyrrolo[3,2-b]pyridin-1-yl)-5-methylpyrimidin-4-yl]oxy}-3-oxa-7-azabicyclo[3.3.1]nonane-7-carboxylate], the concentration giving a half-maximal response (EC50) on human GPR119 [1] was 370 nM and 194 nM and 88 nM; at human GPR119 [2], 3.79 nM.
